Test results published in doi:10.1101/2024.07.29.605666v2, “Effects of two different compounds on seizure suppression using the zebrafish PTZ-seizure model” (bioRxiv, 2024).

Tests used:
Type in all cases: in vivo, zebrafish (Danio rerio)
bcl2a = assay: RT-qPCR of bcl2a transcript in larval heads after PTZ-induced seizures; settings: tripeptide 10 μg/mL 24 h, then 15 mM PTZ 20 min; no statistical difference detected; n = 5
Experimental: (§1) For all compounds, zebrafish larvae at 6 days post-fertilization (dpf) were randomly placed into Petri dishes, each one containing 25 larvae. The larvae were incubated in the respective solutions and concentrations for 24h (as specified in Table 1) prior to seizure induction. The temperature and photoperiod conditions were consistent with those described for the adult zebrafish. The study groups consisted of the Control Group (CG), PTZ Group (PTZ), Treatment 1, Treatment 2, and Treatment 3. Treatments 1 to 3 employed the previously determined concentrations mentioned above.
(§2) Seizure induction followed the pretreatment of the compounds. […]
(§3) Immediately after PTZ exposure, fish were cryo-anesthetized and their heads were cut, collected, and then incubated in TRIzol® (Invitrogen, Carlsbad, CA, USA). […] The concentration and quality were determined using the Epoch™ spectrophotometer (BioTek, Winooski, VT, USA) and gel electrophoresis.
(§4) The synthesis of cDNA was carried out using the High-Capacity cDNA Reverse Transcription kit (Applied Biosystems™, Califórnia, USA) following the manufacturer’s instructions. Quantitative PCR (qPCR) was performed using the SYBR ® Green Master Mix reagent (Bio-Rad) using the ABI 7500 system (Applied Biosystems, Foster City, CA, USA). […] Data were evaluated using 7500 software v2.03 (Applied Biosystems). […]

baxa = assay: RT-qPCR of baxa transcript in larval heads after PTZ-induced seizures; settings: tripeptide 10 μg/mL 24 h, then 15 mM PTZ 20 min; no statistical difference detected; n = 5
Experimental: as §1, §2, §3, §4

zebrafish larvae = assay: PTZ-induced seizure behaviour (latency and number of seizures) after 24 h compound pretreatment; settings: tripeptide 25, 10 and 5 μg/mL, 24 h pretreatment, then 15 mM PTZ, 10 min visual observation; vs PTZ group
Experimental: as §1
Seizure induction followed the pretreatment of the compounds. Larvae with 7 dpf were carefully transferred to a 96-well plate filled with 100 μL of aquarium water, with one larva per well. Subsequently, 100 μL of 30 mM of the proconvulsant agent pentylenetetrazol (PTZ) (Sigma-Aldrich, St. Louis, MO, USA) was added to each well, resulting in a final concentration of 15 mM of PTZ. The larvae were exposed to PTZ for 20 minutes. The control group underwent the same procedure but in PTZ-free water.
The latency and number of seizures were monitored through visual observation, following the method described by Barbalho et al., 2016a. […] Larvae were evaluated for 10 minutes of PTZ exposure, and a complete seizure was considered when they reached stage 3.

casp3a = assay: RT-qPCR of casp3a transcript in larval heads after PTZ-induced seizures; settings: tripeptide 10 μg/mL 24 h, then 15 mM PTZ 20 min; no statistical difference detected; n = 5
Experimental: as §1, §2, §3, §4

il1b = assay: RT-qPCR of il1b transcript in larval heads after PTZ-induced seizures; settings: tripeptide 24 h, then 15 mM PTZ 20 min; significant effects at 10 and 5 μg/mL; n = 5 pools of five heads; vs PTZ group
Experimental: as §1, §2, §3, §4

casp9 = assay: RT-qPCR of casp9 transcript in larval heads after PTZ-induced seizures; settings: tripeptide 24 h, then 15 mM PTZ 20 min; significant effects at 10 and 5 μg/mL; n = 5 pools of five heads; vs PTZ group
Experimental: as §1, §2, §3, §4

Glu-Val-Trp [Tripeptide]
bcl2a gene expression (RQ = 2-ΔΔCT) (bcl2a): roughly equivalent to or slightly higher than those of the PTZ group | baxa gene expression (RQ = 2-ΔΔCT) (baxa): roughly equivalent to or slightly higher than those of the PTZ group | number of seizures (zebrafish larvae): No statistical significance was found | seizure latency (time to stage 3 seizure-like activity) (zebrafish larvae): No statistical significance was found | casp3a gene expression (RQ = 2-ΔΔCT) (casp3a): roughly equivalent to or slightly higher than those of the PTZ group | il1b gene expression (RQ = 2-ΔΔCT) (il1b): downregulation | casp9 gene expression (RQ = 2-ΔΔCT) (casp9): downregulation
